Experimental data: publication PMC7400457, “Profiling and Identification of Omeprazole Metabolites in Mouse Brain and Plasma by Isotope Ratio-Monitoring Liquid Chromatography-Mass Spectrometric Method” (Life, 2020)
Like-named read-outs stand apart in the source and are kept apart here. Each block holds one compound with its values, some of them ahead of it.

Key:
[1] = In vivo metabolite identification (MetID) after concomitant omeprazole/D3-omeprazole administration, mouse plasma and brain; set-up: species or system Male ICR mice; key to D, i.p. route (brain): found / not found / E, i.v. route (brain): found / not found / F, p.o. route (brain): found / not found / A, i.p. route (plasma): found / not found / B, i.v. route (plasma): found / not found / C, p.o. route (plasma): found / not found: O, found; -, not found; details: for D, i.p. route (brain): found / not found / A, i.p. route (plasma): found / not found: 50 mg/kg omeprazole/D3-omeprazole 1:1, i.p.; for D, i.p. route (brain): found / not found / E, i.v. route (brain): found / not found / F, p.o. route (brain): found / not found: mouse brain; for A, i.p. route (plasma): found / not found / B, i.v. route (plasma): found / not found / C, p.o. route (plasma): found / not found: mouse plasma; for E, i.v. route (brain): found / not found / B, i.v. route (plasma): found / not found: 50 mg/kg omeprazole/D3-omeprazole 1:1, i.v.; for samples (matrix/route) in which the metabolite was observed: 50 mg/kg omeprazole/D3-omeprazole 1:1, mice; for F, p.o. route (brain): found / not found / C, p.o. route (plasma): found / not found: 50 mg/kg omeprazole/D3-omeprazole 1:1, p.o.
Procedure: The LC–QTOF-MS system was consisted of a chromatographic pump system (Shimadzu CBM–20A/LC–20AD, Shimadzu Scientific Instruments, Riverwood Dr, Columbia, SC, USA), an auto-sampler system (Eksigent CTC HTS PAL, Sciex, Redwood City, CA, USA), equipped with a mass spectrometer (TripleTOF^TM 5600, Sciex, Redwood City, CA, USA). Chromatographic separation was performed using reversed-phase C18 columns (Phenomenex® Kinetex XB–C18 column; 2.1 × 50 mm for bioanalytical sample quantification and 2.1 × 100 mm for MetID). The HPLC mobile phase was comprised of distilled/deionized water containing 0.1% formic acid (phase A) and acetonitrile containing 0.1% formic acid (phase B) with a binary gradient program. The LC–gradient was optimized as follows: 3.2 min for the quantification (0–0.5 min, 5% B; 0.5–1.2 min, 5–95% B; 1.2–1.4 min, 95% B; 1.4–1.5 min, 95–5% B; and 1.5–3.2 min, 5% B with a flow rate of 0.4 mL/min) and 23 min for MetID (0–1 min, 5% B; 1–13 min, 5–40% B; 13–13.5 min, 40–45% B; 13.5–15.5 min, 45–90% B; 15.5–17.9 min, 90% B; 17.9–18 min, 90–5% B; and 18–23 min, 5% B with a flow rate of 0.3mL/min). In particular, the LC separation conditions for MetID studies were optimized where the peaks of metabolites were separated as much as possible. This was critical in searching for any relevant metabolites originated from omeprazole with unique isotope ratio 1:1.
The single reaction monitoring at high sensitivity option (SRMHS) in the product ion scan was used for the quantification of PK as well as MetID samples. The information-dependent analysis (IDA) method including high resolution TOF full scan and seven unique information-dependent product ion scans were performed for the MetID study. The ion spray voltage (ISVF) was set at 5500 V. The source gas (nebulizer [GS1, ion source gas1] and heater [GS2, ion source gas2]) was set at 50 psi, and the source temperature was set at 500 °C with the curtain gas (CUR) flow of […].
A separate in vivo MetID study was conducted. A total of 50 mg/kg (1:1 ratio of omeprazole and D3–omeprazole) was given through each administration route (p.o., i.v. and i.p.). After administration, blood and brain tissue sampling was conducted in the same manner as the previous PK studies. The collected samples were stored at −80 °C until analysis.
The plasma samples obtained from the study dosed with 50 mg/kg were collected according to the Hamilton pooling method. The pooled plasma sample (a total of 274 μL) was transferred to a clean tube, and 1 mL of ACN was added. The pretreated samples were centrifuged at 10,000 rpm for 5 min, and 1100 μL of the supernatant was evaporated to dryness under vacuum in a centrifugal evaporator (CVE–3110, Eyela, Tokyo, Japan) connected to cold trap (UT–1000, Eyela, Tokyo, Japan). The dried residue was re-constituted, shaken and centrifuged. After centrifugation, the supernatant was transferred to an LC–vial for analysis.
The metabolites of omeprazole were investigated using an LC–QTOF–MS assay. […] In this case, any metabolites having a mass difference of 3 daltons between omeprazole and its stable isotope D3–omeprazole were thoroughly searched as possible drug-related metabolites.

[2] = Pharmacokinetic study of omeprazole in mice after i.v., i.p. and p.o. administration (plasma and brain, LC-QTOF-MS); assay type: in vivo, Male ICR mice; details: 10 mg/kg; for Kp: brain/plasma; for bioavailability: read-out: BA (bioavailability)
Procedure: Omeprazole formulation was freshly prepared on the day of experiment. Mice were randomly distributed into three different groups (twelve mice per group; p.o. group, i.v. group and i.p. group) and received 10 mg/kg of omeprazole. […] Blood was drawn into the heparinized tubes through cardiac puncture and was immediately centrifuged at 10,000 rpm for 5 min. The supernatant of the centrifuged samples was transferred to the clean tubes and stored at −80 °C until analysis. […] The homogenized samples were stored at −80 °C until usage. • Plasma samples: Ten microliters of the mouse plasma samples were placed in cluster tubes. […] Hundred microliters of ACN containing internal standard (ISTD, verapamil) was added to each sample for extraction. The mixture was capped, gently shaken for approximately 1 min and then was centrifuged for 5 min at 10,000 rpm (4 °C). Following the centrifugation, 50 μL supernatant was transferred to a clean test tube and was diluted with 100 μL of distilled water. […] Ten microliters of the mouse brain homogenate were placed in cluster tubes. […] Hundred microliters of ACN containing internal standard (ISTD, verapamil) was added to each sample for extraction. The mixture was capped, gently shaken for approximately 1 min and then centrifuged for 5 min at 10,000 rpm (4 °C). Following the centrifugation, 50 μL supernatant was transferred to a clean test tube and was diluted with 100 μL of distilled water. The resulting mixture was then transferred to an LC-vial, and 10 μL was injected to the LC–QTOF–MS. • Standard (STD) and quality control (QC) samples: […] The mixture was capped, gently shaken for approximately 1 min and then centrifuged for 5 min at 10,000 rpm (4 °C). Following the centrifugation, 50 μL supernatant was transferred to a clean test tube and was diluted with 100 μL of distilled water. The resulting mixture was then transferred to an LC–vial, and 10 μL was injected to the LC–QTOF–MS. Data acquisition and LC–QTOF-MS operation was conducted using Analyst® TF Version 1.6 (Sciex). MultiQuant® Version 2.1.1 (Sciex) was used for the peak integration of omeprazole for quantification. PeakView® Version 2.2 and MetabolitePilot^TM Version 2.0.2 were used for the structural elucidation of omeprazole metabolites. Pharmacokinetic parameters were calculated in a non-compartmental analysis using WinNonlin® version 8.0.0 (Certara, Princeton, NJ, USA). The developed LC–QTOF-MS method was successfully applied to determine the PK parameters after i.v., i.p. and p.o. administration at a dose level of 10 mg/kg each for omeprazole in mice. During the sample preparation of the PK samples, QC samples were included for the assurance of the bioanalytical run. All the PK samples were within the range of the qualified calibration range (3.02~6670 ng/mL). Final concentrations were calculated by considering the dilution factors (e.g., 4× and 2× of the concentrations obtained from the brain and plasma, respectively). Each PK parameters were measured by non-compartmental analysis using WinNonlin (version 8.0.0). […] (Kp) = AUCbrain/AUCplasma(1)

Structure (SMILES): COc1c(C)cnc(C[S+]([O-])c2nc3cc(O[C@@H]4O[C@H](C(=O)O)[C@@H](O)[C@H](O)[C@H]4O)ccc3[nH]2)c1C (stereo partly shown) [Metabolite M2]
D, i.p. route (brain): found / not found [1]: O | A, i.p. route (plasma): found / not found [1]: O | E, i.v. route (brain): found / not found [1]: O | B, i.v. route (plasma): found / not found [1]: O | samples (matrix/route) in which the metabolite was observed [1]: all samples except the brain–PO route sample | F, p.o. route (brain): found / not found [1]: - | C, p.o. route (plasma): found / not found [1]: O

Structure (SMILES): COc1ccc2[nH]c([S+]([O-])Cc3ncc(C)c(OC)c3C)nc2c1 (stereo not shown) [Omeprazole]
D, i.p. route (brain): found / not found [1]: O | A, i.p. route (plasma): found / not found [1]: O | E, i.v. route (brain): found / not found [1]: O | B, i.v. route (plasma): found / not found [1]: O | F, p.o. route (brain): found / not found [1]: O | C, p.o. route (plasma): found / not found [1]: O | brain-to-plasma partition coefficient (Kp) = AUCbrain/AUCplasma ([2]; i.p., AUClast): 0.0681 | Kp ([2]; male, ICR, mouse, ip, i.p., AUClast, read-out: brain-to-plasma partition coefficient (Kp) = AUCbrain/AUCplasma): 0.068 | Kp ([2]; male, ICR, mouse, ip, i.p., read-out: Brain/Plasma Ratio): 0.0681 | Kp ([2]; male, ICR, mouse, iv, i.v., AUClast, read-out: brain-to-plasma partition coefficient (Kp) = AUCbrain/AUCplasma): 0.15 | Kp ([2]; male, ICR, mouse, iv, i.v., read-out: Brain/Plasma Ratio): 0.147 | Kp ([2]; male, ICR, mouse, po, p.o., AUClast, read-out: brain-to-plasma partition coefficient (Kp) = AUCbrain/AUCplasma): 0.064 | Kp ([2]; male, ICR, mouse, po, p.o., read-out: Brain/Plasma Ratio): 0.0643 | AUC(0-t) ([2]; male, ICR, mouse, ip, brain): 72.8 ng·h/mL | half-life ([2]; male, ICR, mouse, ip, brain): 51.3 min | AUC(0-t) ([2]; male, ICR, mouse, ip, plasma): 1070 ng·h/mL | Cmax ([2]; male, ICR, mouse, ip, plasma): 4890 ng/mL | half-life ([2]; male, ICR, mouse, ip, plasma): 28.8 min | AUC(0-t) ([2]; male, ICR, mouse, iv, brain): 652 ng·h/mL | half-life ([2]; male, ICR, mouse, iv, brain): 48.2 min | AUC(0-t) ([2]; male, ICR, mouse, iv, plasma): 4440 ng·h/mL | Cmax ([2]; male, ICR, mouse, iv, plasma): 67600 ng/mL | Vd ([2]; male, ICR, mouse, iv, plasma): 1.49 L/kg | clearance ([2]; male, ICR, mouse, iv, plasma): 37.8 mL/min/kg | half-life ([2]; male, ICR, mouse, iv, plasma): 27.4 min | bioavailability ([2]; male, ICR, mouse, plasma, ip): 24.1% | bioavailability ([2]; male, ICR, mouse, plasma, po): 5.31% | AUC(0-t) ([2]; male, ICR, mouse, po, brain): 15.2 ng·h/mL | Cmax ([2]; male, ICR, mouse, po, brain): 37.8 ng/mL | half-life ([2]; male, ICR, mouse, po, brain): 44.6 min | AUC(0-t) ([2]; male, ICR, mouse, po, plasma): 236 ng·h/mL | Cmax ([2]; male, ICR, mouse, po, plasma): 610 ng/mL | half-life ([2]; male, ICR, mouse, po, plasma): 54.8 min | brain-to-plasma partition coefficient (Kp) = AUCbrain/AUCplasma ([2]; p.o., AUClast): 0.0643

Structure (SMILES): COc1ccc2nc(S(=O)(=O)Cc3ncc(C)c(OC)c3C)[nH]c2c1 [Metabolite M14, omeprazole sulfone]
D, i.p. route (brain): found / not found [1]: O | A, i.p. route (plasma): found / not found [1]: O | E, i.v. route (brain): found / not found [1]: O | B, i.v. route (plasma): found / not found [1]: O | samples (matrix/route) in which the metabolite was observed [1]: all plasma samples (all dosing routes) and all brain samples (all dosing routes) | F, p.o. route (brain): found / not found [1]: O | C, p.o. route (plasma): found / not found [1]: O

More lines, main results first:

D, i.p. route (brain): found / not found [1]: O | A, i.p. route (plasma): found / not found [1]: - | E, i.v. route (brain): found / not found [1]: O | B, i.v. route (plasma): found / not found [1]: - | F, p.o. route (brain): found / not found [1]: - | C, p.o. route (plasma): found / not found [1]: -
Structure (SMILES): COc1c(C)cnc(CSc2nc3cc(O)ccc3[nH]2)c1C [Metabolite M17]
samples (matrix/route) in which the metabolite was observed [1]: only from the brain–IP route and brain–IV route

D, i.p. route (brain): found / not found [1]: O | A, i.p. route (plasma): found / not found [1]: O | E, i.v. route (brain): found / not found [1]: O | B, i.v. route (plasma): found / not found [1]: O | F, p.o. route (brain): found / not found [1]: O | C, p.o. route (plasma): found / not found [1]: O
Structure (SMILES): COc1ccc2[nH]c([S+]([O-])Cc3ncc(C)cc3C)nc2c1 (stereo not shown) [Metabolite M11]
samples (matrix/route) in which the metabolite was observed [1]: all plasma samples (all dosing routes) and all brain samples (all dosing routes)

D, i.p. route (brain): found / not found [1]: - | A, i.p. route (plasma): found / not found [1]: O | E, i.v. route (brain): found / not found [1]: - | B, i.v. route (plasma): found / not found [1]: O | F, p.o. route (brain): found / not found [1]: - | C, p.o. route (plasma): found / not found [1]: -
Structure (SMILES): COc1ccc2[nH]c(SCC(NC(C)=O)C(=O)O)nc2c1 (stereo not shown) [Metabolite M1]
samples (matrix/route) in which the metabolite was observed [1]: plasma–IV route and plasma-IP route samples

D, i.p. route (brain): found / not found [1]: O | A, i.p. route (plasma): found / not found [1]: O | E, i.v. route (brain): found / not found [1]: O | B, i.v. route (plasma): found / not found [1]: O | F, p.o. route (brain): found / not found [1]: O | C, p.o. route (plasma): found / not found [1]: O
Structure (SMILES): COc1ccc2[nH]c(SCc3ncc(C)c(OC)c3C)nc2c1 [Metabolite M15, omeprazole sulfide]
samples (matrix/route) in which the metabolite was observed ([1]; 50 mg/kg): all plasma samples (all dosing routes) and all brain samples (all dosing routes)
